{"source": "paper PMC11005823", "about": "(Frontiers in Microbiology, 2024)", "key": {"[1]": {"target": "T1, AbaPirA (Acinetobacter baumannii, UniProt D0C8V9)", "T1 sequence (D0C8V9 25-754)": "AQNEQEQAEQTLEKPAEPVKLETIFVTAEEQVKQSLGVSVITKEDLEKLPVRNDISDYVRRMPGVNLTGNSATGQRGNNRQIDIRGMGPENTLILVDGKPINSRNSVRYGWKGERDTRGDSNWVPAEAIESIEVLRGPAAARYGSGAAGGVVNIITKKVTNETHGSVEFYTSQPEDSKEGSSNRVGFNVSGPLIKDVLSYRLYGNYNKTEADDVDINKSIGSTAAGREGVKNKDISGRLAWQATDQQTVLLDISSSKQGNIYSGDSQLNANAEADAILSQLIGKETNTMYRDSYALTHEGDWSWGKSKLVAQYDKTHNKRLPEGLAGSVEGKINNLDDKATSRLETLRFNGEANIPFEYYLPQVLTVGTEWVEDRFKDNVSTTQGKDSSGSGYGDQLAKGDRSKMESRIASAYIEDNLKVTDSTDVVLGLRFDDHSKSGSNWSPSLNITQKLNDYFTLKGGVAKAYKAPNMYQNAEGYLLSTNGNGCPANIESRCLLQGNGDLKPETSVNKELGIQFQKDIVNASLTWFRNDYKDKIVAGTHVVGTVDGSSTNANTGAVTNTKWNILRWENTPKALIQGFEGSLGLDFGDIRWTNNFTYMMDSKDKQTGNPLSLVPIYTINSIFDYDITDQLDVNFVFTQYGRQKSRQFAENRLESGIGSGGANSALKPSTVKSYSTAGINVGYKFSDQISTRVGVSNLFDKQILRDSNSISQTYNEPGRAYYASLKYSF", "conditions": "read-out: apparent KD; AbaPirA sensor; NB = no binding"}, "[2]": {"test_system": "OKN359/pFiu Fiu^+, FepA^−, Cir-", "conditions": "summary in words; strains exclusively expressing Fiu"}, "[3]": {"test_system": "OKN359/pFepA Fiu^−, FepA^+, Cir-", "conditions": "summary in words"}, "[4]": {"target": "T2, AbaPiuA (Acinetobacter baumannii, UniProt D0CAH3)", "T2 sequence (D0CAH3 29-743)": "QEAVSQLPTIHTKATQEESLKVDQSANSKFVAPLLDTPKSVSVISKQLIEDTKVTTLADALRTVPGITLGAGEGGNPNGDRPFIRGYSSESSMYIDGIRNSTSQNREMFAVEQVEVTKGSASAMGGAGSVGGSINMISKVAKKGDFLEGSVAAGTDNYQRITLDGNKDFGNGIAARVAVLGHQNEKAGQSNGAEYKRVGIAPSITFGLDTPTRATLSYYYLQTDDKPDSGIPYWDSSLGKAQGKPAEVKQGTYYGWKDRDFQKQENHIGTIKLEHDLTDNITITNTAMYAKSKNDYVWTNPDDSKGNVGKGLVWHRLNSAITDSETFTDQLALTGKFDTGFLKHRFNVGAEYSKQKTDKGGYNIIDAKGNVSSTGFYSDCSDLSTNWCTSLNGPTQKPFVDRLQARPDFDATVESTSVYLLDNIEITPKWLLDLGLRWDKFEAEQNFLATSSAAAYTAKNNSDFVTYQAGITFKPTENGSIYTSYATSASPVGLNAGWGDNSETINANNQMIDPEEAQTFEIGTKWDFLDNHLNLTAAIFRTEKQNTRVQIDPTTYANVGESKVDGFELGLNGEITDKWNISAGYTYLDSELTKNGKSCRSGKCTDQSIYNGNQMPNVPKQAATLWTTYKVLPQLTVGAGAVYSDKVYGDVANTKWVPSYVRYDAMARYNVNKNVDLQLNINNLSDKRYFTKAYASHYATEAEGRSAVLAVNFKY", "conditions": "read-out: apparent KD; AbaPiuA sensor; NB = no binding"}, "[5]": {"target": "T3, EcoFiu (Fiu_A694C-FM) (Escherichia coli, UniProt P75780, A694C)", "T3 sequence (P75780 32-760 A694C)": "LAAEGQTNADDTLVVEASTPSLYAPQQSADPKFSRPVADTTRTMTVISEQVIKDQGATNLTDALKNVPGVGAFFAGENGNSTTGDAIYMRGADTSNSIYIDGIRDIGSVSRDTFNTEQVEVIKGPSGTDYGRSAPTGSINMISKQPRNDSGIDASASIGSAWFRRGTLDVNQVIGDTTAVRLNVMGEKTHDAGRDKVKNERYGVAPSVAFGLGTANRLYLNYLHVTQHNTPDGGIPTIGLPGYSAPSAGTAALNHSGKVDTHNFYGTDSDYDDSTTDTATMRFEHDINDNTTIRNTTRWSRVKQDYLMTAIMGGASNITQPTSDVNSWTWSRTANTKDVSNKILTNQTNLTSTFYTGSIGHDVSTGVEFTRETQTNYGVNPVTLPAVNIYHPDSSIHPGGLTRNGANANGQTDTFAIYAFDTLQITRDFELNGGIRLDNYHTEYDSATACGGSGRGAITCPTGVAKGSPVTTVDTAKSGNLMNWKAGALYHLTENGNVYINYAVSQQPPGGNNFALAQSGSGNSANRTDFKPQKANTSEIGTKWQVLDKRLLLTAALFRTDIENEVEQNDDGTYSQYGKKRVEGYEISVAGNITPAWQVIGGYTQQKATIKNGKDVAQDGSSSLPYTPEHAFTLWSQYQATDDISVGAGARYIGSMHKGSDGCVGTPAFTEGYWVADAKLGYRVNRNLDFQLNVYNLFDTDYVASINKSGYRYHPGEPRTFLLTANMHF", "experiment": "biochemical", "type": "binding"}, "[6]": {"target": "T4, Fiu N554C-FM (Escherichia coli, UniProt P75780, N554C)", "T4 sequence (P75780 32-760 N554C)": "T3 sequence (P75780 32-760 A694C) with N523C, C663A", "type": "binding", "conditions": "Fiu Cys mutant N554C-FM (positive control); read-out: Affinity: apparent KD"}, "[7]": {"target": "EcoCir (Escherichia coli, UniProt P17315)", "sequence (P17315 26-663)": "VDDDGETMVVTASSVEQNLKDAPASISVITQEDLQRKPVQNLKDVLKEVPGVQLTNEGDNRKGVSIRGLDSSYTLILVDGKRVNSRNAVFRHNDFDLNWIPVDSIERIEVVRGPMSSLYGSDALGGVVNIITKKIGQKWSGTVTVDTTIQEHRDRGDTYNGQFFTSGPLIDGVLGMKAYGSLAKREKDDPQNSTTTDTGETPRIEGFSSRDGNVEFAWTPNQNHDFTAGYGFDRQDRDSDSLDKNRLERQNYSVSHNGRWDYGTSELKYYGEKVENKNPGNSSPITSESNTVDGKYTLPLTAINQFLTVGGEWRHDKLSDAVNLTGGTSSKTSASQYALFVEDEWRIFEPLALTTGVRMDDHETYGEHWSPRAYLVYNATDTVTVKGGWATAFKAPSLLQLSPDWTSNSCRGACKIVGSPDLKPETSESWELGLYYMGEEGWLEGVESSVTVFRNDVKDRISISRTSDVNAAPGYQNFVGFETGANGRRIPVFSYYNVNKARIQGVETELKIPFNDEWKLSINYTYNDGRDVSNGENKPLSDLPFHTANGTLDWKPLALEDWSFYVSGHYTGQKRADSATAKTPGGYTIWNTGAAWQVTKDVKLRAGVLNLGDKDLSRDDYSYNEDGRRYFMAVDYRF", "type": "binding"}, "[8]": {"test_system": "OKN359/pCir Fiu^−, FepA^−, Cir^+", "conditions": "summary in words"}, "[9]": {"target": "EcoFepA", "type": "binding, Escherichia coli", "conditions": "read-out: apparent KD"}, "[10]": {"target": "T5, AbaBauA (Acinetobacter baumannii, UniProt Q76HJ9)", "T5 sequence (Q76HJ9 23-725)": "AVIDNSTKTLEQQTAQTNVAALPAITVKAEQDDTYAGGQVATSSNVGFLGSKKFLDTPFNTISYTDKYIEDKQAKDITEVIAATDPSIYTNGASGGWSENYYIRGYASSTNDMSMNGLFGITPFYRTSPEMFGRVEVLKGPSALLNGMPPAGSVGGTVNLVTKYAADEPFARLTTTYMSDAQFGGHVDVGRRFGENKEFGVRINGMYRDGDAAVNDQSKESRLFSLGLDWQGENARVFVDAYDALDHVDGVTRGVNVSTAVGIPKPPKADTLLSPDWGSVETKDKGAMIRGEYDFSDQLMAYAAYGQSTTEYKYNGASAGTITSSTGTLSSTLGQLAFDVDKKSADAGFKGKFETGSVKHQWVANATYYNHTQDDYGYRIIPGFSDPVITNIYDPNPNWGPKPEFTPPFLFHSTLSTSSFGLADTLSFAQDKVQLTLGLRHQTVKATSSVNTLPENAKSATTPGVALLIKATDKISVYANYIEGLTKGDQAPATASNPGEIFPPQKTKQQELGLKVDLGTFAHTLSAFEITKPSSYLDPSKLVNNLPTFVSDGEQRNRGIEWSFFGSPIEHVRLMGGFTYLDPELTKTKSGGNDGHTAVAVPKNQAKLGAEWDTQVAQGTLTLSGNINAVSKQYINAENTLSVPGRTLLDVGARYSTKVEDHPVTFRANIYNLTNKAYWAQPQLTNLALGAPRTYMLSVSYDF", "conditions": "AbaBauA sensor; NB = no binding; read-out: apparent KD"}, "[11]": {"conditions": "apparent KD, EcoFiu sensor (Fiu_A694C-FM; FeDHBA with Fiu_N554C-FM), NB = no binding"}}, "note": "Residue numbers refer to the chain shown, from its start. Where “and” joins values, the source holds several entries; their conditions need not be identical. Equal values may be shown once. Read-outs that look alike come from different tables or passages of the source.", "data": [{"molecule": "O=C(O)c1cccc(O)c1O.O=C(O)c1cccc(O)c1O.O=C(O)c1cccc(O)c1O.[Fe+3]", "note": "[FeDHBA]", "values": [{"measurement": "Kd", "setting": "[1]", "result": "9400 ± 900", "unit": "nM"}, {"measurement": "transport by Fiu", "setting": "[2]", "result": "did not utilize"}, {"measurement": "transport by FepA", "setting": "[3]", "result": "transported"}, {"measurement": "Kd", "setting": "[4]", "result": "15000 ± 3000", "unit": "nM"}, {"measurement": "fluorescence quenching at site A694C-FM", "setting": "[5]; Fiu_A694C-FM", "result": "did not observe significant quenching"}, {"measurement": "Kd", "setting": "[5]; [11]", "result": "700 ± 100", "unit": "nM"}, {"measurement": "Kd", "setting": "[6]", "result": 700, "unit": "nM"}]}, {"molecule": "CC(C)(O/N=C(\\C(=O)N[C@@H]1C(=O)N2C(C(=O)O)=C(C[N+]3(CCNC(=O)c4ccc(O)c(O)c4Cl)CCCC3)CS[C@H]12)c1csc(N)n1)C(=O)O.[Fe+3]", "note": "[FeFDC]", "values": [{"measurement": "Kd", "setting": "[1]", "result": "6200 ± 2300", "unit": "nM"}, {"measurement": "Kd", "setting": "[5]; [11]", "result": 500, "unit": "nM"}, {"measurement": "Kd", "setting": "[5]; read-out: apparent KD, EcoFiu sensor (Fiu_A694C-FM; FeDHBA with Fiu_N554C-FM), NB = no binding", "result": "400 ± 500", "unit": "nM"}, {"measurement": "Kd", "setting": "[7]; Cir", "result": 60, "unit": "nM"}, {"measurement": "Kd", "setting": "[7]; read-out: apparent KD, EcoCir sensor, value marked ^1", "result": "63 ± 6", "unit": "nM"}]}, {"molecule": "CC(C)(O/N=C(\\C(=O)N[C@@H]1C(=O)N2C(C(=O)[O-])=C(C[N+]3(CCNC(=O)c4ccc([O-])c([O-])c4Cl)CCCC3)CS[C@H]12)c1csc(N)n1)C(=O)O.[Fe+3]", "note": "[FeFDC]", "values": [{"measurement": "susceptibility of cells expressing only FepA", "setting": "[3]", "result": "not susceptible"}]}, {"molecule": "O=C(N[C@@H](CO)C(=O)OC[C@H](NC(=O)c1cccc(O)c1[O-])C(=O)O)c1cccc([O-])c1[O-].[Fe+3]", "note": "[FeEnt*, Fe(DHBS)2]", "values": [{"measurement": "Kd", "setting": "[5]; [11]", "result": 740, "unit": "nM"}]}, {"molecule": "O=C(N[C@@H](CO)C(=O)O)c1cccc(O)c1O.O=C(N[C@@H](CO)C(=O)O)c1cccc(O)c1O.O=C(N[C@@H](CO)C(=O)O)c1cccc(O)c1O.[Fe+3]", "note": "[FeDHBS]", "values": [{"measurement": "Kd", "setting": "[1]", "result": "161000 ± 40000", "unit": "nM"}, {"measurement": "transport by Fiu", "setting": "[2]", "result": "did not utilize"}, {"measurement": "Kd", "setting": "[5]; [11]", "result": "100 nM and ~100 nM"}, {"measurement": "Kd", "setting": "[5]; apparent KD, EcoFiu sensor, value marked ^1", "result": "90 ± 0.2", "unit": "nM"}, {"measurement": "transport by Cir", "setting": "[8]", "result": "weakly"}, {"measurement": "Kd", "setting": "[7]; read-out: apparent KD, EcoCir sensor, NB = no binding", "result": "7200 ± 900", "unit": "nM"}, {"measurement": "Kd", "setting": "[9]", "result": "1600 ± 300", "unit": "nM"}]}, {"molecule": "ferric acinetobactin [FeAgn]", "values": [{"measurement": "Kd", "setting": "[10]", "result": "2100 ± 400", "unit": "nM"}]}]}
